From patent US20230416316A1, “ADP-RIBOSE BINDING PEPTIDES WITH ANTI-CANCER ACTIVITY AND USE THEREOF” (PearlsInMires Co., Ltd., priority 2021, published 2023)

Legend:
Format in all cases: cell-based
MDA-MB-231 cells = assay: Cell viability (MTT, photomicrographs) in MDA-MB-231 cells; details: 16 μM peptide, 24 hours
Description: (§1) After culturing 3×10^3 MDA-MB-231 cells in a 96-well plate for 24 hours under conditions of 37° C. and 5% C02, the cells were either untreated or treated with the peptides of Examples 1 to 28 at a concentration of 16 μM, respectively. Then, the cells were cultured for 24 hours under conditions of 37° C. and 5% CO2, and 10 μl of 3-(4,5-dimethylthiazol-2-yl)-2,5-diphenyltetrazolium bromide reagent was added to each well, followed by reaction for 1 hour. After the reaction was completed, the reagent was removed, 200 μl of dimethyl sulfoxide was added to each well, and the absorbance was measured to confirm cell viability.

Hep G2 cells = assay: Cell viability (MTT, photomicrographs) in Hep G2 cells; details: 16 μM peptide, 24 hours
Description: 2-4. Change in viability in Hep G2 cells according to treatment with ADP-ribose binding peptide After culturing 3×10^3 Hep G2 cells in a 96-well plate for 24 hours under conditions of 37° C. and 5% CO2, the cells were either untreated or treated with the peptides of Examples 1 to 28 at a concentration of 16 μM, respectively. Then, the cells were cultured for 24 hours under conditions of 37° C. and 5% CO2, and 10 μl of 3-(4,5-dimethylthiazol-2-yl)-2,5-diphenyltetrazolium bromide reagent was added to each well, followed by reaction for 1 hour. After the reaction was completed, the reagent was removed, 200 μl of dimethyl sulfoxide was added to each well, and the absorbance was measured to confirm cell viability.

H1975 cells [1] = assay: ADP-ribose level by ELISA in H1975 cells; details: 0.2-32 μM peptide, 24 hours
Description: (§2) The peptides of Examples 1 to 28 of the present disclosure are designed to inhibit the action of poly ADP-ribose degradation enzyme. In Experimental Example 1, it was confirmed through cell experiments whether poly ADP-ribose was inhibited from being degraded by each of the peptides and accumulated in cancer cells.
(§3) 5×10^5 H1975 cells were divided into a group not treated with the peptide of Example and a group treated with 0.2, 1, 2, 4, 8, 16, and 32 μM of the peptide of Example 2 (SEQ ID NO: 2), and cultured for 24 hours under conditions of 37° C. and 5% CO2 in RPMI-1640 medium supplemented with 10% FBS, 100 units/ml penicillin, and 100 μg/ml streptomycin. The medium of the cultured cells was removed, and the samples were treated with RIPA buffer and 1% SDS. The prepared supernatant was used for ELISA analysis to detect and analyze ADP-ribose.

H1975 cells [2] = assay: Cell viability (MTT, photomicrographs) in H1975 cells; details: 16 μM peptide, 24 hours
Description: as §1, with “H1975” for “MDA-MB-231”, “CO2,” for “C02,”

Caki-1 cells = assay: Cell viability (MTT, photomicrographs) in Caki-1 cells; details: 16 μM peptide, 24 hours
Description: as §1, with “Caki-1” for “MDA-MB-231”, “CO2,” for “C02,”

U-87MG cells [3] = assay: Cell viability (MTT, photomicrographs) in U-87MG cells; details: 16 μM peptide, 24 hours
Description: as §1, with “U-87MG” for “MDA-MB-231”, “CO2,” for “C02,”

U-87MG cells [4] = assay: ADP-ribose level by ELISA in U-87MG cells; details: 0.2-32 μM peptide, 24 hours
Description: as §2
5×10^5 U-87MG cells were divided into a group not treated with the peptide of Example and a group treated with 0.2, 1, 2, 4, 8, 16, and 32 μM of the peptide of Example 1 (SEQ ID NO: 1) or Example 8 (SEQ ID NO: 8), and cultured for 24 hours under conditions of 37° C. and 5% CO2 in Eagle's minimum essential medium (EMEM) supplemented with 10% FBS, 100 units/ml penicillin, and 100 μg/ml streptomycin. The medium of the cultured cells was removed, and the samples were treated with RIPA buffer and 1% SDS. The prepared supernatant was used for ELISA analysis to detect and analyze ADP-ribose.

Aspc-1 cells [5] = assay: ADP-ribose level by ELISA in Aspc-1 cells; details: 0.2-32 μM peptide, 24 hours
Description: as §2
as §3, with “5×10^5 Aspc-1” for “5×10^5 H1975”, “Example 3” for “Example 2”, “NO: 3),” for “NO: 2),”

Aspc-1 cells [6] = assay: Cell viability (MTT, photomicrographs) in Aspc-1 cells; details: 16 μM peptide, 24 hours
Description: as §1, with “Aspc-1” for “MDA-MB-231”, “CO2,” for “C02,”

HCT116 cells = assay: Cell viability (MTT, photomicrographs) in HCT116 cells; details: 16 μM peptide, 24 hours
Description: as §1, with “HCT116” for “MDA-MB-231”, “CO2,” for “C02,”

GRKKRRQRRRPQFCYLIYENSMSQMNRQTRRRRRLRR (GRKKRRQRRRPQFCYLIYFNSMSQMNRQTRRRRRLRR; ADP-ribose binding peptide with CPP) [Example 19]
cancer cell growth and survival (MDA-MB-231 cells): completely killed

GRKKRRQRRRPQRHYTVNLNTYTATDTKGHSLSVQR (ADP-ribose binding peptide with CPP) [Example 26]
cancer cell growth and survival (MDA-MB-231 cells): completely killed

GRKKRRQRRRPQRVYTIDENSMQQINEDTGTARAIQR (GRKKRRQRRRPQRVYTIDFNSMQQINEDTGTARAIQR; ADP-ribose binding peptide with CPP) [Example 18]
cancer cell growth and survival (Hep G2 cells): completely killed

RRYTVQFTTMVQVNEETGNRRPVM (ADP-ribose binding peptide) [Example 9]
amount of increase in ADP-ribose (fold change) compared to the control group (H1975 cells [1]): significant increase in the amount of ADP-ribose in a concentration-dependent manner | cancer cell growth and survival (H1975 cells [2]): inhibited from growing and killed

GRKKRRQRRRPQTAYEASVCDYLEQQVARGN (ADP-ribose binding peptide with CPP) [Example 28]
cancer cell growth and survival (Caki-1 cells): completely killed

VPYIIDLQSMHQFRQDIGTMRPVRR (VPYIIDLQSMHQFRQDTGTMRPVRR; ADP-ribose binding peptide) [Example 1]
cancer cell growth and survival (U-87MG cells [3]): inhibited from growing and killed | amount of increase in ADP-ribose (fold change) compared to the control group (U-87MG cells [4]): significant increase in the amount of ADP-ribose in a concentration-dependent manner

GRKKRRQRRRPQYNYTVNYTTHTQTNKTSSFCRSVRR (ADP-ribose binding peptide with CPP) [Example 22]
cancer cell growth and survival (U-87MG cells [3]): completely killed

APYIIDLPSWTQFRQDIGTMRAVRR (APYIIDLPSWTQFRQDTGTMRAVRR; ADP-ribose binding peptide) [Example 3]
amount of increase in ADP-ribose (fold change) compared to the control group (Aspc-1 cells [5]): significant increase in the amount of ADP-ribose in a concentration-dependent manner | cancer cell growth and survival (Aspc-1 cells [6]): inhibited from growing and killed

GRKKRRQRRRPQFSYKIDFAEMKQMNLTTGKQRLIKR (ADP-ribose binding peptide with CPP) [Example 21]
cancer cell growth and survival (Caki-1 cells): completely killed

GRKKRRQRRRPQGRYDVHLGERMRYAVYWDELASEVRR (ADP-ribose binding peptide with CPP) [Example 27]
cancer cell growth and survival (HCT116 cells): completely killed

GRKKRRQRRRPQRRYTVQFTTMVQVNEETGNRRPVM (ADP-ribose binding peptide with CPP) [Example 23]
cancer cell growth and survival (H1975 cells [2]): completely killed

GRKKRRQRRRPQWIWYWKNESGTWIQYGEEKDKRKN (ADP-ribose binding peptide with CPP) [Example 24]
cancer cell growth and survival (Aspc-1 cells [6]): completely killed

GRKKRRQRRRPQAPYIIDLQSMNQFRQDTGTLRPVRR (ADP-ribose binding peptide with CPP) [Example 16]
cancer cell growth and survival (H1975 cells [2]): completely killed

WIWYWKNESGTWIQYGEEKDKRKN (ADP-ribose binding peptide) [Example 10]
amount of increase in ADP-ribose (fold change) compared to the control group (Aspc-1 cells [5]): significant increase in the amount of ADP-ribose in a concentration-dependent manner | cancer cell growth and survival (Aspc-1 cells [6]): inhibited from growing and killed

GRKKRRQRRRPQFLYVADLENMVQYRRNEHGRRRKIKR (ADP-ribose binding peptide with CPP) [Example 25]
cancer cell growth and survival (Hep G2 cells): completely killed

GRKKRRQRRRPQFSYVIDENTMGQINRQTQRQRRVRR (GRKKRRQRRRPQFSYVIDFNTMGQINRQTQRQRRVRR; ADP-ribose binding peptide with CPP) [Example 20]
cancer cell growth and survival (HCT116 cells): completely killed

YNYTVNYTTHTQTNKTSSFCRSVRR (ADP-ribose binding peptide) [Example 8]
cancer cell growth and survival (U-87MG cells [3]): inhibited from growing and killed | amount of increase in ADP-ribose (fold change) compared to the control group (U-87MG cells [4]): significant increase in the amount of ADP-ribose in a concentration-dependent manner

GRKKRRQRRRPQVPYIIDLQSMHQFRQDIGTMRPVRR (GRKKRRQRRRPQVPYIIDLQSMHQFRQDTGTMRPVRR; ADP-ribose binding peptide with CPP) [Example 15]
cancer cell growth and survival (U-87MG cells [3]): completely killed

APYIIDLQSMNQFRQDIGTLRPVRR (APYIIDLQSMNQFRQDTGTLRPVRR; ADP-ribose binding peptide) [Example 2]
amount of increase in ADP-ribose (fold change) compared to the control group (H1975 cells [1]): significant increase in the amount of ADP-ribose in a concentration-dependent manner | cancer cell growth and survival (H1975 cells [2]): inhibited from growing and killed

GRKKRRQRRRPQAPYIIDLPSWTQFRQDIGTMRAVRR (GRKKRRQRRRPQAPYIIDLPSWTQFRQDTGTMRAVRR; ADP-ribose binding peptide with CPP) [Example 17]
cancer cell growth and survival (Aspc-1 cells [6]): completely killed
